Tests used:
bone [1] = details: ovariectomized rat; cited from earlier work
uterus [2] = details: ovariectomized rat; versus Tamoxifen; cited from earlier work
human estrogen receptor = target: T1, human estrogen receptor (Homo sapiens, UniProt P03372); assay: 2×VIT ERE Infection Assay (luciferase); assay type: cell-based; details: CHO, 24 h; for Emax at 1 µM: read-out: Infection Luciferase Activity, 1 uM; for activity at 1 µM: read-out: Infection Luciferase Activity, 1 uM + 17β estradiol
T1 construct: expressed in transfected cells; host or cells: Chinese Hamster Ovary (CHO) cells, stably transfected
Method: Chinese Hamster Ovary cells (CHO) which had been stably transfected with the human estrogen receptor were maintained in DMEM+10% fetal bovine serum (FBS). 48h prior to treatment the growth medium was replaced with DMEM lacking phenol red+10% dextran coated charcoal stripped FBS (treatment medium). Cells were plated at a density of 5000 cells/well in 96-well plates containing 200 μL of medium/well.
Reporter DNA (Promega plasmid pGL2 containing two tandem copies of the vitellogenin ERE in front of the minimal thymidine kinase promoter driving the luciferase gene) was combined with the B-galactosidase expression plasmid pCH 110 (Pharmacia) and carrier DNA (pTZ18U) in the following ratio:
20 uG of DNA1 mL of transfection solution
The DNA (20uG) was dissolved in 500 uL of 250 mM sterile CaCl2 and added dropwise to 500 uL of 2×HeBS (0.28 M NaCl, 50 mM HEPES, 1.5 mM Na2 HPO4, pH 7.05) and incubated at room temperature for 20 minutes. 20 uL of this mixture was added to each well of cells and remained on the cells for 16 h. […] Each treatment condition was performed on 8 wells (n=8) which were incubated for 24 h prior to the luciferase assay.
After 24 h exposure to compounds, the media was removed and each well washed 2× with 125 uL of PBS lacking Mg^++ and Ca^++. After removing the PBS, 25 uL of Promega lysis buffer was added to each well and allowed to stand at room temperature for 15 min, followed by 15 min at -80° C. and 15 min at 37° C. 20 uL of lysate was transferred to an opaque 96 well plate for luciferase activity evaluation and the remaining lysate (5 uL) was used for the B-galactosidase activity evaluation (normalize transfection). The luciferan substrate (Promega) was added in 100 uL aliquots to each well automatically by the luminometer and the light produced (relative light units) was read 10 seconds after addition.
To the remaining 5 uL of lysate 45 uL of PBS was added. Then 50 uL of Promega B-galactosidase 2× assay buffer was added, mixed well and incubated at 37° C. for 1 hour. A plate containing a standard curve (0.1 to 1.5 milliunits in triplicate) was set up for each experimental run. The plates were analyzed on a Molecular Devices spectrophotometric plate reader at 410 nm. The optical densities for the unknown were converted to milliunits of activity by mathematical extrapolation from the standard curve.
The luciferase data was generated as relative light units (RLUs) accumulated during a 10 second measurement and automatically transferred to a JMP (SAS Inc) file where background RLUs were subtracted. The B-galactosidase values were automatically imported into the file and these values were divided into the RLUs to normalize the data. The mean and standard deviations were determined from a n=8 for each treatment.

estrogen receptor = target: T2, estrogen receptor (Homo sapiens, UniProt P03372); assay: In vitro Estrogen Receptor Binding Assay; details: comparison / general statement in words
T2 construct: made in house; host or cells: CHO cells overexpressing the receptor; 100,000 g cytosol
T2 sequence (P03372 1-595): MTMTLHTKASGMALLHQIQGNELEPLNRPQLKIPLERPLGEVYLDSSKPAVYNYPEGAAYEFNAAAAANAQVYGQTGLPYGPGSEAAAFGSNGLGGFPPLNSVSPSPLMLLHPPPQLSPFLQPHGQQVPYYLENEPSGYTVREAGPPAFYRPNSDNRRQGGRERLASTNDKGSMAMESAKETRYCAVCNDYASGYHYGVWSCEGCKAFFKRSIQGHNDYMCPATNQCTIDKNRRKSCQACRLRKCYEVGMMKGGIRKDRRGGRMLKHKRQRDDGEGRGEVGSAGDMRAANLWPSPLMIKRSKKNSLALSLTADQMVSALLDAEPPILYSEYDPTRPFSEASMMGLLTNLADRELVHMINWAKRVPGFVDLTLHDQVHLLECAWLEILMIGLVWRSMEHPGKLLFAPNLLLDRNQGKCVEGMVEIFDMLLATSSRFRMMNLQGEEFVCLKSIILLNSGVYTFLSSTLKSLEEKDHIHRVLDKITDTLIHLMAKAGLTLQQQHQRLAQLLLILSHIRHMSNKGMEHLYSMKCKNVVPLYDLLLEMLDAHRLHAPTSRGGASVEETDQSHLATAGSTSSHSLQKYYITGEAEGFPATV
Method: CHO cells overexpressing the estrogen receptor were grown in 150 mm^2 dishes in DMEM+10% dextran coated charcoal, stripped fetal bovine serum. The plates were washed twice with PBS and once with 10 mM Tris-HCl, pH 7.4, 1 mM EDTA. Cells were harvested by scraping the surface and then the cell suspension was placed on ice. Cells were disrupted with a hand-held motorized tissue grinder using two, 10-second bursts. The crude preparation was centrifuged at 12,000 g for 20 minutes followed by a 60 minute spin at 100,000 g to produce a ribosome free cytosol. The cytosol was then frozen and stored at -80° C. Protein concentration of the cytosol was estimated using the BCA assay with reference standard protein.
The competition assay was performed in a 96-well plate (polystyrene*) which binds <2.0% of the total input [^3 H]-17β-estradiol and each data point was gathered in triplicate. 100 uG/100 uL of the receptor preparation was aliquoted per well. A saturating dose of 2.5 nM [^3 H] […] Samples were counted to 2% or 10 minutes, whichever occurs first. […] Also, wells containing radioactivity but no cytosol were processed with charcoal to estimate unremovable DPM of [^3 H] […]
Counts per minute (CPM) of radioactivity were automatically converted to disintegrated per minute (DPM) by the Beckman LS 7500 Scintillation Counter using a set of quenched standards to generate a H# for each sample. […]

uterus [3] = details: in vivo; cited from earlier work
bone [4] = details: humans; cited from earlier work

Compound | Emax at 1 µM (human estrogen receptor) | activity at 1 µM (human estrogen receptor) | binding to the ER receptor (in words) (estrogen receptor) | other results
O=C(c1ccc(OCCN2CCCCC2)cc1)c1c(-c2ccc(O)cc2)sc2cc(O)ccc12 [Raloxifene] | – | – | – | ability to spare bone / bone mass (bone [1]): maintaining the ability to spare bone; uterine growth (uterus [2]): stimulate uterine growth in the ovariectornized rat to a lesser extent than Tamoxifen
COc1ccc2c(c1)CCc1c-2n(Cc2ccc(OCCN3CCCCC3)cc2)c2ccc(O)cc12 [Example 13, 3-Methoxy-11-[4-(2-piperidin-1-yl-ethoxy)-benzyl]-5,11-dihydro-6H-benzof[a]carbazol-8-ol] | -7% | 1% | bind better to the ER receptor than the indenoindole #6 | –
COc1ccc2c(c1)Cc1c-2n(Cc2ccc(OCCN3CCCCC3)cc2)c2ccc(O)cc12 [Example 4, 2-Methoxy-5-[4-(2-piperidin-1-yl-ethoxy)-benzyl]-5,10-dihydro-indeno[1,2-b]lindol-8ol] | -2% | 83% | – | –
CC/C(=C(\c1ccccc1)c1ccc(OCCN(C)C)cc1)c1ccccc1 [tamoxifen] | – | – | – | agonism in the uterus (uterus [3]): partial agonist in the uterus; effect on the bone (bone [4]): estrogen agonist-like effect on the bone
COc1ccc2c(c1)CCc1c-2n(Cc2ccc(OCCN3CCCCCC3)cc2)c2ccc(O)cc12 [Example 14, 11-[4-(2-Azepan-1-yl-ethoxy)-benzyl]-3-methoxy-5,11-dihydro-6H-benzo[a]carbazol-8-ol] | 1% | 8% | bind better to the ER receptor than the indenoindole #6 | –

— patent US6107292A, “Indenoindoles and benzocarbazoles as estrogenic agents” (American Home Products Corporation, priority 2000, dated 2000)
